Data set [1] in a line: Color change on storage at high relative humidity, measured by a color difference meter. The data set is classed as physicochemical. The note with it: for color change observed on stored sample: stored at a high relative humidity. The protocol:
The control product was stored at a relative humidity of 93% and the degree of a color change was measured.

Data set [2] can be described thus: Hygroscopicity test (weight changes due to moisture absorption). The data set is classed as physicochemical. Particulars: exposed to humidity of 83% and 93% at 25° C. over 5 days; FIG. 1. Here is the method:
A hygroscopicity test was conducted on (lS,9S)-1-amino-9-ethyl-5-fluoro-2,3-dihydro-9-hydroxy-4-methyl-1H,12H-benzo[de]pyrano[3′,4′:6,7]indolizino[1,2-b]-quinoline-10,13(9H,15H)-dione•methanesulfonate•dihydrate according to the present invention and (1S,9S)-1-amino-9-ethyl-5-fluoro-2,3-dihydro-9-hydroxy-4-methyl-1H,12H-benzo[de]pyrano[3′,4′:6,7]indolizino[1,2-b]-quinoline-10,13(9H,15H)-dione-hydrochloride (control product).
Described specifically, each salt was exposed to high-humidity conditions of 83% and 93% at 25° C. Over a period of 5 days, its weight changes were investigated.

The mark [3] stands for this setting: stored for 0 month, relative humidity 93%.
The mark [4] stands for this setting: stored for 1 month, 25° C., relative humidity 93%.
Where [5] appears, read: stored for 2 months, 25° C., relative humidity 93%.

The text below walks through data of patent publication US6552197B2, “Condensed-hexacyclic compounds and a process therefor” (Daiichi Pharmaceutical Co., Ltd., priority 1995, dated 2003).

Regarding `CC[C@@]1(O)C(=O)OCc2c1cc1n(c2=O)Cc2c-1nc1cc(F)c(C)c3c1c2[C@@H](N)CC3` [methanesulfonate, (1S,9S)-1-Amino-9-ethyl-5-fluoro-2,3-dihydro-9-hydroxy-4-methyl-1H,12H-benzo[de]pyrano[3′,4′:6,7]-indolizino[1,2-b]quinoline-10,13(9H,15H)-dione•methanesulfonate•dihydrate], the “color change observed on stored sample” value in data set [1] is “No color change”. In addition, in data set [2], the “weight changes due to moisture absorption (hygroscopicity)” value was “a gradual and small change”.
In the case of `CC[C@@]1(O)C(=O)OCc2c1cc1n(c2=O)Cc2c-1nc1cc(F)c(C)c3c1c2[C@@H](N)CC3.Cl` [control product, (1S,9S)-1-amino-9-ethyl-5-fluoro-2,3-dihydro-9-hydroxy-4-methyl-1H,12H-benzo[de]pyrano[3′,4′:6,7]indolizino[1,2-b]-quinoline-10,13(9H,15H)-dione-hydrochloride], the “decomposition by moisture absorption (conclusion from color change)” value in data set [1] (stored at 25° C., relative humidity 93%) is given as “decomposes by moisture absorption”. Further, the “color change observed on stored sample” value in data set [1] is given as “color change (yellowish brown—brown; originally: yellow) was observed”. Further, the values for the Color entry in data set [1] (setting [3]), in data set [1] (setting [4]) and in data set [1] (setting [5]) were “Yellow”, “brown-yellow” and “brown-yellow”, respectively. Also, the “Lab (chromaticity, brightness)” value in data set [1] (setting [3]) was 81.68-81.69; in data set [1] (setting [4]), 74.96-75.23; in data set [1] (setting [5]) it was 62.65-67.43. In addition, the “ΔE(H) (degree of a color difference)” value is 7.16-7.38 in data set [1] (setting [4]) and 14.53-19.24 in data set [1] (setting [5]). Besides, the “weight changes due to moisture absorption (hygroscopicity)” value in data set [2] is “high hygroscopicity and a fast weight change due to hygroscopicity”.
